Article PMC8217813, “Bridging Computational Vaccinology and Vaccine Development Through Systematic Identification, Characterization, and Downselection of Conserved and Variable Circumsporozoite Protein CD4 T Cell Epitopes From Diverse Plasmodium falciparum Strains” (Frontiers in Immunology, 2021)
Peptide text beside a SMILES is read from it.

These molecules were tested against T1, HLA B*0702 (Homo sapiens, UniProt P01889) (assay: biochemical). Details: allele B0702; cell-free competition with fluorescently labeled control peptide, fluorescence polarization at 72 hours.
T1 construct: Pure Protein, LLC (ran the assay)
Format: binding
KPGSADKPKD [347_CVX69 (10)] was tested, and the “IC50 (nM)” value was “Non-Binder”.
For KPGSANKPKD [Cluster 347_3D7], the “IC50 (nM)” value was “Non-Binder”.
For NPNANPNAN [131_3D7 (9)], the “IC50 (nM)” value was “Non-Binder”.
With NPNANPNANP [131_3D7 (10)] the “IC50 (nM)” value was “Non-Binder”.
In the case of NPNVDPNANP [Cluster 107_3D7], the “IC50 (nM)” value is reported as “Non-Binder”.
In the case of SPCSVTCGNG [Cluster 332_3D7], the “IC50 (nM)” value is reported as “Non-Binder”.

Same assay, conditions: allele B0702; cell-free competition with fluorescently labeled control peptide, fluorescence polarization at 72 hours; read-out: IC50
With `C[C@H](NC(=O)[C@H](CO)NC(=O)CNC(=O)[C@@H]1CCCN1C(=O)[C@@H](N)CCCCN)C(=O)NCC(=O)N[C@@H](CCCCN)C(=O)N[C@@H](CO)C(=O)N[C@@H](CCCCN)C(=O)O` [347_CVX36 (9)] (H-KPGSAGKSK-OH) the IC50 was 53.1 µM.
For `CSCC[C@H](N)C(=O)N1CCC[C@H]1C(=O)N[C@@H](CC(N)=O)C(=O)N[C@@H](CC(=O)O)C(=O)N1CCC[C@H]1C(=O)N[C@@H](CC(N)=O)C(=O)N[C@@H](CCCNC(=N)N)C(=O)N[C@@H](CC(N)=O)C(=O)N[C@H](C(=O)O)C(C)C` [Cluster 285_3D7], the IC50 was 511 µM.
`CC[C@H](C)[C@H](NC(=O)[C@H](CCCNC(=N)N)NC(=O)[C@@H](NC(=O)[C@@H](N)CCC(N)=O)C(C)C)C(=O)N[C@@H](CCCCN)C(=O)N1CCC[C@H]1C(=O)NCC(=O)N[C@@H](CO)C(=O)N[C@@H](C)C(=O)O` [Cluster 343_3D7] (H-QVRIKPGSA-OH) gave an IC50 of 134 µM.

What follows are molecules tested against HLA B*4402 (Homo sapiens, UniProt P01889, A223V/A65T/A93T/A95T/D201E/D98Y/E176V/E187L/E204Q/E69K/G107R/H137Y/K202T/L105A/L119I/N104T/N87E/Q56L/Q94N/R106L/R155S/R180D/S101N/S121R/S35A/S48T/T118I/V36M/W191S/Y140D/Y91S) (assay: In vitro class I HLA binding competition assay (fluorescence polarization)). Details: allele B4402; cell-free competition with fluorescently labeled control peptide, fluorescence polarization at 72 hours.
Experimental: The cell-free class I HLA binding assay in use at Pure Protein, LLC allows for in vitro quantification of peptide-HLA binding affinity in a competition format. In this assay, a fluorescently labeled, high binding, control peptide is loaded onto 384-well ½-area plates along with unlabeled experimental peptides. To remove endogenous peptides and render the HLA A and B molecules receptive to binding, HLA is heated at 53°C for 15 minutes and immediately added to the assay. The mixture is then allowed to stand for three days. Once the mixture has reached steady equilibrium (at 72 hours), displacement of the high binding control peptide is measured through Fluorescence Polarization. Binding of experimental peptides is expressed as the percent inhibition of the labeled control peptide (experimental fluorescence / control fluorescence, multiplied by 100). The percent inhibition values for each experimental peptide (across a range of molar concentrations) are used to calculate the concentration which inhibits 50% of the labeled control peptide’s specific binding. This value is referred to as the peptide’s IC50.
`CSCC[C@H](N)C(=O)N1CCC[C@H]1C(=O)N[C@@H](CC(N)=O)C(=O)N[C@@H](CC(=O)O)C(=O)N1CCC[C@H]1C(=O)N[C@@H](CC(N)=O)C(=O)N[C@@H](CCCNC(=N)N)C(=O)N[C@@H](CC(N)=O)C(=O)N[C@H](C(=O)O)C(C)C` [Cluster 285_3D7] was tested, and the “IC50 (nM)” value was “Non-Binder”.
For `C[C@H](NC(=O)[C@H](CC(N)=O)NC(=O)[C@H](CC(N)=O)NC(=O)[C@H](C)NC(=O)[C@H](CC(N)=O)NC(=O)[C@H](C)NC(=O)[C@H](CC(N)=O)NC(=O)[C@H](CCC(=O)O)NC(=O)[C@@H](N)CC(=O)O)C(=O)O` [Cluster 294_CVX311] (H-DENANANNA-OH), the IC50 was 896 µM.
For `CC[C@H](C)[C@H](NC(=O)[C@H](CC(=O)O)NC(=O)[C@H](CC(N)=O)NC(=O)[C@H](C)NC(=O)[C@H](Cc1ccc(O)cc1)NC(=O)[C@H](CC(=O)O)NC(=O)[C@H](CC(C)C)NC(=O)[C@H](CCC(=O)O)NC(=O)[C@@H](N)CC(=O)O)C(=O)O` [Cluster 356_3D7] (H-DELDYANDI-OH), the IC50 was 277 µM.
Work on `CC[C@H](C)[C@H](NC(=O)[C@H](CCCCN)NC(=O)[C@H](CCCCN)NC(=O)[C@H](CCC(=O)O)NC(=O)[C@@H](NC(=O)[C@H](CC(=O)O)NC(=O)[C@H](CC(N)=O)NC(=O)[C@H](CCC(=O)O)NC(=O)[C@@H](N)Cc1ccc(O)cc1)[C@@H](C)CC)C(=O)O` [Cluster 360_CVX298] (H-YENDIEKKI-OH) yielded an IC50 of 7.36 µM.
`CSCC[C@H](N)C(=O)N[C@@H](CCC(=O)O)C(=O)N[C@@H](CCCCN)C(=O)N[C@@H](CS)C(=O)N[C@@H](CO)C(=O)N[C@@H](CO)C(=O)N[C@H](C(=O)N[C@@H](Cc1ccccc1)C(=O)N[C@@H](CC(N)=O)C(=O)O)C(C)C` [Cluster 371_3D7] (H-MEKCSSVFN-OH) showed an IC50 of 143 µM.
For DENANANSA [Cluster 294_3D7], the “IC50 (nM)” value was “Non-Binder”.
With KDELDYENDI [Cluster 355_CVX124] the “IC50 (nM)” value was “Non-Binder”.
In the case of KEYLNKIQNS [Cluster 317_3D7], the “IC50 (nM)” value is reported as “Non-Binder”.
With NEEPSDKHI [308_3D7(9)] the “IC50 (nM)” value was “Non-Binder”.
For NEEPSDQHI [Cluster 308_CVX99], the “IC50 (nM)” value was “Non-Binder”.
In the case of TEWSPCSVT [Cluster 329_3D7], the “IC50 (nM)” value is reported as “Non-Binder”.
For TEYLKKIQN [Cluster 317_ICS2], the “IC50 (nM)” value was “Non-Binder”.
